Test results reported in US7982043B2, “Protein tyrosine kinase enzyme inhibitors” (Wyeth LLC, priority 2003, dated 2011).
≈ marks a conversion by molar mass, not a printed value. Where two headings read alike, the source gives them in different places.

Assays:
[1] = test system: SK-Br-3 cells; assay: Cell proliferation assay (SRB), SK-Br-3; type: cell-based; settings: EGFR −, Her-2 +++, 2 days, SRB; for IC50: Homo sapiens, SK-BR-3, 48 h, read-out: CELL IC50 SKBr3
[2] = biological target: mouse fibroblast cell line transfected with the HER-2 oncogene (3T3/neu) (UniProt P04626, cells depend on it, species not given); assay: Cell proliferation assay (SRB), 3T3/neu; type: cell-based; settings: EGFR −, Her-2 +++, 2 days, SRB; for GI50: read-out: CELL IC50 3T3/NEU (converted)
[3] = test system: SW620 cells; assay: Cell proliferation assay (SRB), SW620; type: cell-based; settings: EGFR −, Her-2 −, 2 days, SRB; for IC50: Homo sapiens, SW-620, 48 h, read-out: CELL IC50 SW620
[4] = test system: A431 cells; assay: Cell proliferation assay (SRB), A431; type: cell-based; settings: for IC50: Homo sapiens, A-431, 48 h, read-out: CELL IC50 A431
[5] = biological target: T1, Her-2 (Homo sapiens, UniProt P04626); assay: Her-2 receptor phosphorylation in BT474 cells (immunoblot); type: cell-based; settings: Her-2 phosphorylation, 3 hours at 37° C., immunoblot; read-out: IC50 receptor phosphorylation BT474 (converted)
T1 construct: For Her-2 and EGFR phosphorylation assays, cells (BT474 and A431, respectively) were incubated with various concentrations of compound; endogenous in cells; host or cells: BT474

[6] = test system: MDA-MB-435 cells; assay: Cell proliferation assay (SRB), MDA-MB-435; type: cell-based; settings: EGFR −, Her-2 −, 2 days, SRB; for IC50: Homo sapiens, MDA-MB-435, 48 h, read-out: CELL IC50 MDA-MB-435
[7] = test system: 3T3 cells; assay: Cell proliferation assay (SRB), 3T3; type: cell-based, mouse; settings: Mus musculus, NIH3T3, 48 h; EGFR −, Her-2 −; 2 days, SRB; read-out: CELL IC50 3T3
[8] = test system: BT474 cells; assay: Cell proliferation assay (SRB), BT474; type: cell-based, human; settings: Homo sapiens, BT-474, 144 h; EGFR +, Her-2 +++; 6 days, SRB; read-out: CELL IC50 BT474

Compound: COc1cc2ncc(C#N)c(Nc3ccc(Sc4nccn4C)c(Cl)c3)c2cc1NC(=O)/C=C/CN(C)C [Example 37, (2E)-N-[4-({3-chloro-4-[(1-methyl-1H-imidazol-2-yl)sulfanyl]phenyl}amino)-3-cyano-7-methoxy-6-quinolinyl]-4-(dimethylamino)-2-butenamide]
- IC50 [1]: 0.0004 µg/mL (≈ 0.00073 µM)
- GI50 [2]: 36.5 nM
- IC50 [3]: 0.43 µg/mL (≈ 0.785 µM)
- IC50 [4]: 0.02 µg/mL (≈ 0.0365 µM)
- IC50 [5]: < 1820 nM
- IC50 [6]: 0.43 µg/mL (≈ 0.785 µM)

Compound: COc1cc2ncc(C#N)c(Nc3ccc(Sc4nccs4)c(Cl)c3)c2cc1NC(=O)/C=C/CN(C)C [Example 40, (2E)-N-(4-{[3-chloro-4-(1,3-thiazol-2-ylsulfanyl)phenyl]amino}-3-cyano-7-methoxy-6-quinolinyl)-4-(dimethylamino)-2-butenamide]
- IC50 [1]: 0.0007 µg/mL (≈ 0.00127 µM)
- GI50 [2]: 3.63 nM
- IC50 [3]: 1.13 µg/mL (≈ 2.05 µM)
- IC50 [4]: 0.017 µg/mL (≈ 0.0308 µM)
- IC50 [5]: 18100 to 90700 nM
- IC50 [6]: 0.33 µg/mL (≈ 0.599 µM)

Compound: COc1cc2ncc(C#N)c(Nc3ccc(Sc4nc(-c5ccccc5)cs4)c(Cl)c3)c2cc1NC(=O)/C=C/CN(C)C [Example 58, (E)-N-(4-{3-chloro-4-[(4-phenyl-1,3-thiazol-2-yl)sulfanyl]anilino}-3-cyano-7-methoxy-6-quinolinyl)-4-(dimethylamino)-2-butenamide]
- IC50 [1]: 0.005 µg/mL (≈ 0.00797 µM)
- GI50 [2]: 44.6 nM
- IC50 [3]: 0.57 µg/mL (≈ 0.909 µM)
- IC50 ([4]; EGFR +++, Her-2 +, 2 days, SRB): 0.162 µg/mL (≈ 0.258 µM)
- IC50 [5]: 79700 to 797000 nM
- IC50 [6]: 0.23 µg/mL (≈ 0.367 µM)

Compound: CCOc1cc2ncc(C#N)c(Nc3ccc(OCc4cccs4)c(Cl)c3)c2cc1NC(=O)/C=C/CN(C)C [Example 76, (2E)-N-{4-[3-chloro-4-(2-thienylmethoxy)anilino]-3-cyano-7-ethoxy-6-quinolinyl}-4-(dimethylamino)-2-butenamide]
- IC50 [7]: 0.41 µg/mL (≈ 0.729 µM)
- IC50 [1]: 0.004 µg/mL (≈ 0.00712 µM)
- GI50 [2]: 6.94 nM
- IC50 [3]: 0.25 µg/mL (≈ 0.445 µM)
- IC50 [5]: 2.67 nM
- IC50 [8]: 0.003 µg/mL (≈ 0.00534 µM)
- IC50 [6]: 0.77 µg/mL (≈ 1.37 µM)

Compound: (E)-N-{4-[3-chloro-4-(1H-imidazol-1-yl)anilino]-3-cyano-7-methoxy-6-quinolinyl}-azol-1-yl)anilino]-4-(dimethylamino)-2-)anilino-2-butenamide [Example 43]
- CELL IC50 SKBr3 [1]: 0.32 µg/mL
- CELL IC50 3T3/NEU [2]: 1.46 µg/mL
- CELL IC50 SW620 [3]: 1.45 µg/mL
- CELL IC50 A431 ([4]; EGFR +++, Her-2 +, 2 days, SRB): 0.51 µg/mL
- CELL IC50 MDA-MB-435 [6]: 0.57 µg/mL
